From patent publication US12310975B2, “Modulators of BCL6 proteolysis and associated methods of use” (Arvinas Operations, Inc., priority 2019, dated 2025)
Like-named read-outs stand apart in the source and are kept apart here.

Molecular target: BCL6 (Homo sapiens (Human), UniProt P41182)
Assay: Immunofluorescence high content imaging of BCL6 degradation in T47D cells
Assay type: cell-based
Summary of the method: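 Following a 3-day incubation with serially diluted bifunctional compounds (final top 0.1 or 1 μM), T47D cells were PFA-fixed and immunostained for BCL6. Nuclear BCL6 signal was captured on a high-content imager.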

| Compound | Dmax (T47D cells) [%] | IC50 (T47D cells) [nM] | other results |
| --- | --- | --- | --- |
| CCn1c(=O)c(OCC(=O)NC)cc2cc(Nc3nc(N4CCC(COC5CCN(c6cccc7c6C(=O)N(C6CCC(=O)NC6=O)C7=O)CC5)CC4)ncc3Cl)ccc21 (stereo not drawn) [compound 332, 2-({6-[(5-chloro-2-{4-[({1-[2-(2,6-dioxopiperidin-3-yl)-1,3-dioxo-2,3-dihydro-1H-isoindol-4-yl]piperidin-4-yl}oxy)methyl]piperidin-1-yl}pyrimidin-4-yl)amino]-1-ethyl-2-oxo-1,2-dihydroquinolin-3-yl}oxy)-N-methylacetamide] | 50 to 70 | < 10 | – |
| CNC(=O)COc1cc2cc(Nc3nc(N4CCC(OC5CC6(CCN(c7cccc(C(=O)NC8CCC(=O)NC8=O)c7OC)CC6)C5)CC4)ncc3Cl)ccc2n(C(C)C)c1=O (stereo not drawn) [compound 449, 3-[2-({1-[5-chloro-4-({3-[(methylcarbamoyl)methoxy]-2-oxo-1-(propan-2-yl)-1,2-dihydroquinolin-6-yl}amino)pyrimidin-2-yl]piperidin-4-yl}oxy)-7-azaspiro[3.5]nonan-7-yl]-N-(2,6-dioxopiperidin-3-yl)-2-methoxybenzamide] | – | – | Dmax (T47D): 50 to 70% |
| CNC(=O)COc1cc2cc(Nc3nc(N4CCC(CCOC5CN(c6cccc7c6C(=O)N(C6CCC(=O)NC6=O)C7=O)C5)CC4)ncc3Cl)ccc2n(C)c1=O (stereo not drawn) [compound 252, 2-((6-((5-chloro-2-(4-(2-((1-(2-(2,6-dioxopiperidin-3-yl)-1,3-dioxoisoindolin-4-yl)azetidin-3-yl)oxy)ethyl)piperidin-1-yl)pyrimidin-4-yl)amino)-1-methyl-2-oxo-1,2-dihydroquinolin-3-yl)oxy)-N-methylacetamide] | – | – | IC50: < 10 nM; Dmax (T47D): 50 to 70% |
| CNC(=O)COc1cc2cc(Nc3nc(N4CCC(CN5CCC6(CC5)CN(c5ccc(C(=O)NC7CCC(=O)NC7=O)c(OC)c5)C6)CC4)ncc3Cl)ccc2n(C(C)C)c1=O (stereo not drawn) [compound 425, 4-[7-({1-[5-chloro-4-({3-[(methylcarbamoyl)methoxy]-2-oxo-1-(propan-2-yl)-1,2-dihydroquinolin-6-yl}amino)pyrimidin-2-yl]piperidin-4-yl}methyl)-2,7-diazaspiro[3.5]nonan-2-yl]-N-(2,6-dioxopiperidin-3-yl)-2-methoxybenzamide] | 50 to 70 | < 10 | – |
| CNC(=O)COc1cc2cc(Nc3nc(N4CCN(CC5CCN(c6ccc7c(c6)C(=O)N(C6CCC(=O)NC6=O)C7=O)CC5)CC4)ncc3Cl)ccc2n(CCC2CC2)c1=O (stereo not drawn) [compound 333, 2-{[6-({5-chloro-2-[4-({1-[2-(2,6-dioxopiperidin-3-yl)-1,3-dioxo-2,3-dihydro-1H-isoindol-5-yl]piperidin-4-yl}methyl)piperazin-1-yl]pyrimidin-4-yl}amino)-1-(2-cyclopropylethyl)-2-oxo-1,2-dihydroquinolin-3-yl]oxy}-N-methylacetamide] | 50 to 70 | < 10 | – |
| CNC(=O)COc1cc2cc(Nc3nc(N4CCC(OCCOCCOCCOCCOc5cc(-c6scnc6C)ccc5CNC(=O)[C@@H]5C[C@@H](O)CN5C(=O)C(c5cc(C)no5)C(C)C)CC4)ncc3Cl)ccc2n(C)c1=O (stereo partly drawn) [compound 54, (2S,4R)-N-(2-(2-(2-(2-(2-((1-(5-chloro-4-((1-methyl-3-(2-(methylamino)-2-oxoethoxy)-2-oxo-1,2-dihydroquinolin-6-yl)amino)pyrimidin-2-yl)piperidin-4-yl)oxy)ethoxy)ethoxy)ethoxy)ethoxy)-4-(4-methylthiazol-5-yl)benzyl)-4-hydroxy-1-(3-methyl-2-(3-methylisoxazol-5-yl)butanoyl)pyrrolidine-2-carboxamide] | – | – | DC50 (class symbols A-D, read-out: EC50 (nM)*): > 100 nM |
| CNC(=O)COc1cc2cc(Nc3nc(N4CCC(OC5CC6(C5)CN(c5cccc7c5C(=O)N(C5CCC(=O)NC5=O)C7=O)C6)CC4)ncc3Cl)ccc2n(C(C)C)c1=O (stereo not drawn) [compound 363, 2-{[6-({5-chloro-2-[4-({2-[2-(2,6-dioxopiperidin-3-yl)-1,3-dioxo-2,3-dihydro-1H-isoindol-4-yl]-2-azaspiro[3.3]heptan-6-yl}oxy)piperidin-1-yl]pyrimidin-4-yl}amino)-2-oxo-1-(propan-2-yl)-1,2-dihydroquinolin-3-yl]oxy}-N-methylacetamide] | ≥ 70 | < 10 | – |
